The values that follow come from PubChem BioAssay (NCI).

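The compound was tested at five concentrations on cells cultured in 96-well plates, with a 48-hour exposure period. The concentration for full growth arrest is given as TGI.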 A value given as a limit tells only on which side of the number the result lay.

Test systems include SK-OV-3 ovarian; NCI-H522 lung; OVCAR-8 ovarian; SNB-19 CNS; HCT-15 colon; T-47D breast; SF-295 CNS; OVCAR-4 ovarian; SK-MEL-2 melanoma; HOP-92 NSCLC; MOLT-4 leukemia; DU-145 prostate; CCRF-CEM leukemia; UO-31 renal; IGROV1 ovarian; CAKI-1 renal; SK-MEL-5 melanoma; MDA-MB-435; SR leukemia.
Experiment in all cases: NCI anticancer screen, dose series, 48 h

Take `CN(C)CCCNc1ncnc2nc[nH]c12`: the TGI in the experiment on SK-OV-3 ovarian, with NCI-H522 lung, in the experiment on OVCAR-8 ovarian, with SNB-19 CNS, with HCT-15 colon and in the experiment with T-47D breast was more than 100 µM throughout. Besides, the TGI with SF-295 CNS, in the experiment with OVCAR-4 ovarian, with SK-MEL-2 melanoma, with HOP-92 NSCLC, in the experiment with MOLT-4 leukemia and in the experiment on DU-145 prostate was more than 100 µM each time. For the same compound, the TGI in the experiment with CCRF-CEM leukemia, in the experiment with UO-31 renal, in the experiment on IGROV1 ovarian, in the experiment with CAKI-1 renal, in the experiment with SK-MEL-5 melanoma and in the experiment on MDA-MB-435 was more than 100 µM in each case.

On to `C#CCOCn1ccc(=O)[nH]c1=O`, for which the TGI in the experiment on SK-OV-3 ovarian, in the experiment on OVCAR-8 ovarian, with SNB-19 CNS, in the experiment with HCT-15 colon, in the experiment on T-47D breast and in the experiment on SF-295 CNS was more than 100 µM in each case. Also, the TGI in the experiment with OVCAR-4 ovarian, in the experiment with SK-MEL-2 melanoma, with MOLT-4 leukemia, in the experiment with DU-145 prostate, in the experiment with CCRF-CEM leukemia and in the experiment with SR leukemia was more than 100 µM in each case. The TGI in the experiment with UO-31 renal, in the experiment with IGROV1 ovarian, in the experiment with CAKI-1 renal, in the experiment on SK-MEL-5 melanoma and in the experiment with MDA-MB-435 was more than 100 µM in each case.

Turning to `Cc1nc(Nc2ccc(F)cc2)c2sc(=S)n(-c3ccc(F)cc3)c2n1`, the TGI in the experiment on SK-OV-3 ovarian was found to be 40.2 µM; in the experiment with NCI-H522 lung, 30.1 µM; in the experiment on OVCAR-8 ovarian it was 35.9 µM; with SNB-19 CNS it was 27.8 µM; in the experiment with HCT-15 colon, 13.8 µM; in the experiment with T-47D breast it was 19.8 µM. Moreover, the TGI in the experiment on SF-295 CNS is 27.3 µM; with OVCAR-4 ovarian, 40.8 µM; with SK-MEL-2 melanoma, 28.6 µM; with DU-145 prostate, 26.2 µM; in the experiment on SR leukemia it was more than 100 µM; in the experiment on UO-31 renal it was 30.1 µM. For the same compound, the TGI was found to be 22.4 µM in the experiment with IGROV1 ovarian, 35.5 µM in the experiment on CAKI-1 renal, 27.7 µM in the experiment with SK-MEL-5 melanoma and 22.7 µM with MDA-MB-435.

For `CCN(CC)c1ccc(C2SCC(=O)N2c2ccc(NC(=O)c3ccc(N4C(=O)CSC4c4ccc(N(CC)CC)cc4)cc3)cc2)cc1` (centres undefined), the TGI with SK-OV-3 ovarian, with NCI-H522 lung, in the experiment on OVCAR-8 ovarian, in the experiment with SNB-19 CNS, in the experiment on HCT-15 colon and in the experiment with T-47D breast was more than 100 µM in each case. Further, the TGI with SF-295 CNS, with OVCAR-4 ovarian, in the experiment on SK-MEL-2 melanoma, in the experiment with HOP-92 NSCLC, in the experiment on MOLT-4 leukemia and in the experiment with DU-145 prostate was more than 100 µM throughout. The TGI in the experiment with CCRF-CEM leukemia, in the experiment with UO-31 renal, in the experiment on IGROV1 ovarian, with CAKI-1 renal, with SK-MEL-5 melanoma and with MDA-MB-435 was more than 100 µM each time.

For the compound `COc1ccc(C(=O)/C=C/c2ccc(OCCSCCCCCCCCCCSCCOc3ccc(/C=C/C(=O)c4ccc(OC)cc4)cc3)cc2)cc1`, the TGI in the experiment with SK-OV-3 ovarian, in the experiment on OVCAR-8 ovarian, in the experiment with SNB-19 CNS, in the experiment on HCT-15 colon, in the experiment on T-47D breast and in the experiment with SF-295 CNS was more than 100 µM throughout. Further, the TGI in the experiment with OVCAR-4 ovarian, with SK-MEL-2 melanoma, with MOLT-4 leukemia, with DU-145 prostate, in the experiment with CCRF-CEM leukemia and in the experiment with SR leukemia was more than 100 µM in each case. Further, the TGI in the experiment on UO-31 renal, in the experiment on IGROV1 ovarian, in the experiment with CAKI-1 renal, in the experiment on SK-MEL-5 melanoma and in the experiment on MDA-MB-435 was more than 100 µM in each case.

As for `O=C(Cn1cc(F)c(=O)[nH]c1=O)C12CC3CC(CC(C3)C1)C2`, the TGI in the experiment with SK-OV-3 ovarian, in the experiment on NCI-H522 lung, in the experiment on OVCAR-8 ovarian, in the experiment with SNB-19 CNS, in the experiment with HCT-15 colon and in the experiment with T-47D breast was more than 100 µM throughout. Besides, the TGI in the experiment with SF-295 CNS, in the experiment on OVCAR-4 ovarian, with SK-MEL-2 melanoma, in the experiment on MOLT-4 leukemia, in the experiment with DU-145 prostate and in the experiment on CCRF-CEM leukemia was more than 100 µM throughout. Besides, the TGI in the experiment with SR leukemia, in the experiment on UO-31 renal, in the experiment with IGROV1 ovarian, with CAKI-1 renal, in the experiment on SK-MEL-5 melanoma and in the experiment with MDA-MB-435 was more than 100 µM in each case.

Consider `COC(=O)C1CC=C(SC(=O)c2ccccc2)N1C(=O)c1ccccc1` (centres undefined), for which the TGI in the experiment with SK-OV-3 ovarian, in the experiment with NCI-H522 lung, with OVCAR-8 ovarian, in the experiment with SNB-19 CNS, in the experiment on HCT-15 colon and with T-47D breast was more than 100 µM in each case. For the same compound, the TGI in the experiment with SF-295 CNS, with OVCAR-4 ovarian, with SK-MEL-2 melanoma, with HOP-92 NSCLC, in the experiment on MOLT-4 leukemia and with DU-145 prostate was more than 100 µM in each case. Besides, the TGI in the experiment on UO-31 renal, with IGROV1 ovarian, in the experiment on CAKI-1 renal, in the experiment on SK-MEL-5 melanoma and in the experiment on MDA-MB-435 was more than 100 µM each time.

For `CSc1nc(-c2ccc(C)cc2)c(C#N)c(=O)[nH]1`, the TGI in the experiment with SK-OV-3 ovarian, in the experiment on NCI-H522 lung, in the experiment on OVCAR-8 ovarian, in the experiment with SNB-19 CNS, in the experiment with HCT-15 colon and in the experiment on T-47D breast was more than 100 µM each time. Further, the TGI in the experiment with SF-295 CNS, with OVCAR-4 ovarian, in the experiment with SK-MEL-2 melanoma, in the experiment with HOP-92 NSCLC, with MOLT-4 leukemia and in the experiment on DU-145 prostate was more than 100 µM in each case. In addition, the TGI in the experiment with CCRF-CEM leukemia, with UO-31 renal, with IGROV1 ovarian, in the experiment on CAKI-1 renal, in the experiment with SK-MEL-5 melanoma and with MDA-MB-435 was more than 100 µM each time.
